From ChEMBL document CHEMBL2413068, “Solid-phase synthesis of 5'-triphosphate 2'-5'-oligoadenylates analogs with 3'-O-biolabile groups and their evaluation as RNase L activators and antiviral drugs” (Bioorg Med Chem, 2013)
The source made the active and inactive calls. The calls are words filed in the database; no cut-off is given here.

How the values were obtained:
[1] = molecular target: T1, 2-5A-dependent ribonuclease (Homo sapiens, UniProt Q05823); assay: Activation of human recombinant RNase L endonuclease activity using 6-FAM-UUAUCAAAUUCUUAUUUGCCCCAUUUUUUUGGUUUA-BHQ-1 as substrate assessed as substrate cleavage measured for 50 mins by FRET assay
T1 sequence (Q05823 whole entry): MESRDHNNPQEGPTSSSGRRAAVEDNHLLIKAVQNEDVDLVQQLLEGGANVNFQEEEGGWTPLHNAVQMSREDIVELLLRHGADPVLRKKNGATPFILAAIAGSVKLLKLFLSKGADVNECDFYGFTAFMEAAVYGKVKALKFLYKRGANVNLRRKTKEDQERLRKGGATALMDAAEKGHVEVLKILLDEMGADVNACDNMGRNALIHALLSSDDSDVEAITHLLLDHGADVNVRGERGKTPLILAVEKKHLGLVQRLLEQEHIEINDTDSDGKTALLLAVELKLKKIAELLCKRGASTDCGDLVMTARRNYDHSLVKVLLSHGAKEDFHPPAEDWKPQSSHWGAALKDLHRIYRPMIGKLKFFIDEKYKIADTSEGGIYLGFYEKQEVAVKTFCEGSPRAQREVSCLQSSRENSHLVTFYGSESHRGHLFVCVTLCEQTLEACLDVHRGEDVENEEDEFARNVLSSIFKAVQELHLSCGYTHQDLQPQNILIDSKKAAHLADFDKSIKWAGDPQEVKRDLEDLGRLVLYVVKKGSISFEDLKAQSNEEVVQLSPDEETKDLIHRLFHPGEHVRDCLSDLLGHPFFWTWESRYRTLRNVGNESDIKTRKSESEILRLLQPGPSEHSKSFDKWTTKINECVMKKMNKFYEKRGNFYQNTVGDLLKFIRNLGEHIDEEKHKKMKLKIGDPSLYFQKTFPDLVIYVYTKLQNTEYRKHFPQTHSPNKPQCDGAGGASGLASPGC

[2] = system: Respiratory syncytial virus; assay: Antiviral activity against Respiratory syncytial virus A2 infected in african green monkey Vero cells assessed as reduction of virus-induced cytopathic effect at >= 15 nM pretreated 2 hrs before viral infection measured daily using hucker's crystal violet staining; type: functional, organism-based
[3] = Selectivity index, ratio of CC50 for human A549 cells to EC50 for Influenza A virus (A/WSN/1933(H1N1)); type: toxicity, cell-based; details: read-out: Ratio CC50/EC50
Influenza A virus = assay: Antiviral activity against Influenza A virus (A/WSN/1933(H1N1)) infected in human A549 cells assessed as reduction of viral RNA level my measuring luminescence after 72 hrs by RT-PCR analysis; type: functional, organism-based; details: A549, 72 h
Vero [4] = assay: Cytotoxicity against african green monkey Vero cells assessed as cell viability up to 100 uM by Hucker's crystal violet staining; type: cell-based; details: chlorocebus sabaeus
Vero [5] = assay: Cytotoxicity against Respiratory syncytial virus A2 infected african green monkey Vero cells at 33.3 uM by Hucker's crystal violet staining; type: cell-based; details: chlorocebus sabaeus
[6] = Cytotoxicity against human A549 cells after 72 hrs by Cell Titer-Glo assay; type: cell-based

| Compound | EC50 [1] | Activity [2] | selectivity ratio [3] | EC50 (Influenza A virus) | Activity (Vero [4]) | Activity (Vero [5]) | CC50 at 72 h [6] |
| --- | --- | --- | --- | --- | --- | --- | --- |
| CC(C)(C)C(=O)OCO[C@H]1[C@@H](O)[C@H](n2cnc3ncnc(N)c32)O[C@@H]1COP(=O)(O)O[C@@H]1[C@H](OCOC(=O)C(C)(C)C)[C@@H](COP(=O)(O)O[C@@H]2[C@H](OCOC(=O)C(C)(C)C)[C@@H](COP(=O)(O)O[C@@H]3[C@H](OCOC(=O)C(C)(C)C)[C@@H](COP(=O)(O)OP(=O)(O)OP(=O)(O)O)O[C@H]3n3cnc4ncnc(N)c43)O[C@H]2n2cnc3ncnc(N)c32)O[C@H]1n1cnc2ncnc(N)c21 | 241 nM | – | – | – | – | – | – |
| Nc1ncnc2ncn([C@@H]3O[C@H](COP(=O)(O)O[C@@H]4[C@H](O)[C@@H](COP(=O)(O)O[C@@H]5[C@H](O)[C@@H](COP(=O)(O)O[C@@H]6[C@H](O)[C@@H](COP(=O)(O)OP(=O)(O)OP(=O)(O)O)O[C@H]6n6cnc7ncnc(N)c76)O[C@H]5n5cnc6ncnc(N)c65)O[C@H]4n4cnc5ncnc(N)c54)[C@@H](O)[C@H]3O)c12 | 6.1 nM | – | – | – | – | – | – |
| CC(C)(C)C(=O)OCO[C@H]1[C@@H](O)[C@H](n2cnc3ncnc(N)c32)O[C@@H]1COP(=O)(O)O[C@@H]1[C@H](OCOC(=O)C(C)(C)C)[C@@H](COP(=O)(O)O[C@@H]2[C@H](OCOC(=O)C(C)(C)C)[C@@H](COP(=O)(O)OP(=O)(O)OP(=O)(O)O)O[C@H]2n2cnc3ncnc(N)c32)O[C@H]1n1cnc2ncnc(N)c21 | 19.1 nM | Active | 3 | 14.6 µM | Non-toxic | Toxic | 47 µM |
